Measured values as given in ChEMBL document CHEMBL3885861, “Open TG-GATES”.

Organism: Rattus norvegicus
Assay: Open TG-GATES - Regimen: Single
Format: toxicity, organism-based, Sprague-Dawley
Design: regimen Single, gender Male, age 6 weeks
Settings: in vivo, po, 0 mg/kg, route gavage, dose level Control; for APTT / Bas / Eos / Fbg / Hb / Lym / MCH / MCHC / MCV / Mono / Neu / PT / Plat / RBC / Ret / WBC: tissue Blood; for KIDNEY_L / KIDNEY_R / KIDNEY_TOTAL: tissue Kidney; for LIVER: tissue Liver; for ALP / ALT / AST / BUN / CRE / Ca / Cl / DBIL / GLC / IP / K / LDH / Na / PL / RALB / TBIL / TC / TG / TP / gamma-GTP: tissue Plasma

## OCCN1CCN(CCCN2c3ccccc3Sc3ccc(C(F)(F)F)cc32)CC1 [FLUPHENAZINE]
3 h
  TERMINAL_BW: 199 g
  APTT: 16.1 s
  Bas: 0%
  Eos: 0.6%
  Fbg: 228.2 mg/dL
  Hb: 13.1 g/dL
  Lym: 80.4%
  MCH: 21.2 pg
  MCHC: 33%
  MCV: 64.3 fL
  Mono: 6.8%
  Neu: 12.2%
  PT: 12.5 s
  Plat: 106.1 x10_4/uL
  RBC: 617.6 x10_4/ul
  Ret: 7.6%
  WBC: 113.1 x10_2/uL
  KIDNEY_L: 0.9 g
  KIDNEY_R: 0.9 g
  KIDNEY_TOTAL: 1.9 g
  LIVER: 9.6 g
  ALP: 888.6 IU/L
  ALT: 34.8 IU/L
  AST: 63.4 IU/L
  BUN: 13 mg/dL
  CRE: 0.5 mg/dL
  Ca: 10.9 mg/dL
  Cl: 104.2 meq/L
  DBIL: 0.006 mg/dL
  GLC: 179 mg/dL
  IP: 10.3 mg/dL
  K: 5.1 meq/L
  LDH: 86.2 IU/L
  Na: 138 meq/L
  PL: 154.2 mg/dL
  RALB: 3.9 g/dL
  TBIL: 0.3 mg/dL
  TC: 85.8 mg/dL
  TG: 53.6 mg/dL
  TP: 5.5 g/dL
  gamma-GTP: 1.4 IU/L
6 h
  TERMINAL_BW: 196.6 g
  APTT: 16.4 s
  Bas: 0%
  Eos: 1%
  Fbg: 214.4 mg/dL
  Hb: 13 g/dL
  Lym: 75.8%
  MCH: 21.6 pg
  MCHC: 33.2%
  MCV: 65.1 fL
  Mono: 8.2%
  Neu: 15.4%
  PT: 12.8 s
  Plat: 108.7 x10_4/uL
  RBC: 601.2 x10_4/ul
  Ret: 8.4%
  WBC: 105.2 x10_2/uL
  KIDNEY_L: 0.9 g
  KIDNEY_R: 0.9 g
  KIDNEY_TOTAL: 1.8 g
  LIVER: 8.6 g
  ALP: 819.6 IU/L
  ALT: 33.6 IU/L
  AST: 67.4 IU/L
  BUN: 11.2 mg/dL
  CRE: 0.5 mg/dL
  Ca: 10.2 mg/dL
  Cl: 105.8 meq/L
  DBIL: 0.03 mg/dL
  GLC: 180.8 mg/dL
  IP: 10 mg/dL
  K: 4.7 meq/L
  LDH: 93 IU/L
  Na: 137 meq/L
  PL: 118.2 mg/dL
  RALB: 3.6 g/dL
  TBIL: 0.4 mg/dL
  TC: 65.8 mg/dL
  TG: 36.8 mg/dL
  TP: 5.3 g/dL
  gamma-GTP: 1.6 IU/L
9 h
  TERMINAL_BW: 197.8 g
  APTT: 16.6 s
  Bas: 0%
  Eos: 0.8%
  Fbg: 220.8 mg/dL
  Hb: 12.6 g/dL
  Lym: 77.6%
  MCH: 21.7 pg
  MCHC: 33.1%
  MCV: 65.6 fL
  Mono: 9%
  Neu: 13.2%
  PT: 12.5 s
  Plat: 111.9 x10_4/uL
  RBC: 581.6 x10_4/ul
  Ret: 8.6%
  WBC: 107.8 x10_2/uL
  KIDNEY_L: 0.9 g
  KIDNEY_R: 0.9 g
  KIDNEY_TOTAL: 1.9 g
  LIVER: 8.6 g
  ALP: 831.6 IU/L
  ALT: 29.2 IU/L
  AST: 58.8 IU/L
  BUN: 11.8 mg/dL
  CRE: 0.5 mg/dL
  Ca: 10.3 mg/dL
  Cl: 103.8 meq/L
  DBIL: 0.012 mg/dL
  GLC: 186.4 mg/dL
  IP: 10.2 mg/dL
  K: 4.6 meq/L
  LDH: 86.4 IU/L
  Na: 137.2 meq/L
  PL: 145 mg/dL
  RALB: 3.7 g/dL
  TBIL: 0.3 mg/dL
  TC: 84.6 mg/dL
  TG: 46.8 mg/dL
  TP: 5.4 g/dL
  gamma-GTP: 1.2 IU/L
24 h
  TERMINAL_BW: 211.2 g
  APTT: 16.8 s
  Bas: 0%
  Eos: 0.2%
  Fbg: 217.6 mg/dL
  Hb: 12.9 g/dL
  Lym: 80.8%
  MCH: 22.4 pg
  MCHC: 33.4%
  MCV: 67.1 fL
  Mono: 7.4%
  Neu: 11.4%
  PT: 12 s
  Plat: 113.4 x10_4/uL
  RBC: 574.6 x10_4/ul
  Ret: 8%
  WBC: 137.9 x10_2/uL
  KIDNEY_L: 0.9 g
  KIDNEY_R: 1 g
  KIDNEY_TOTAL: 1.9 g
  LIVER: 10.7 g
  ALP: 951.8 IU/L
  ALT: 38.6 IU/L
  AST: 69.6 IU/L
  BUN: 18.8 mg/dL
  CRE: 0.5 mg/dL
  Ca: 11.1 mg/dL
  Cl: 104.2 meq/L
  DBIL: 0.012 mg/dL
  GLC: 183.8 mg/dL
  IP: 8.8 mg/dL
  K: 4.9 meq/L
  LDH: 107.4 IU/L
  Na: 137.4 meq/L
  PL: 160.8 mg/dL
  RALB: 4 g/dL
  TBIL: 0.3 mg/dL
  TC: 80 mg/dL
  TG: 134.2 mg/dL
  TP: 5.8 g/dL
  gamma-GTP: 1.8 IU/L
